Results taken from ChEMBL document CHEMBL1201862, “PubChem BioAssay data set” (2004).
Values belong to the compound of their own block, whether it stands above or below them. Activity calls are given as the source filed them.

Columns and labels:
[1] = HGIII-sPLA2 enzyme inhibition potency – biochemical, QFRET, IC50, dose response (AID 743457);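 also: green fluorescence rise as the enzyme cleaves BODIPY PC-A2 in liposomes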
[2] = inhibition of ADAM10 peptide cleavage – biochemical, FRET peptide substrate, recombinant human ADAM10, selectivity assay for ADAM17 exosite inhibitor project, dose response (AID 743259);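 also: ADAM10 enzyme cleaving a FRET peptide substrate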
[3] = molecular target: Disintegrin and metalloproteinase domain-containing protein 17 (Homo sapiens, UniProt P78536); assay: exosite inhibitors of ADAM17, dose response, biochemical (AID 743260)
[4] = Late stage assay provider results from the probe development effort to identify inhibitors of the Plasmodium falciparum M17 Leucine Aminopeptidase (M17LAP): radiolabel-based cell-based dose response assay to identify compounds that inhibit P. falciparum growth in RBCs Set 2.; format: functional
[5] = system: HEK293; assay: EBV LMP1 TES2 canonical NF-kB signalling blockers – cell-based, HEK293, luciferase, cherry-pick, dose response (AID 588343); format: functional; conditions: Homo sapiens
[6] = molecular target: Interleukin-8 (Homo sapiens, UniProt P10145); assay: Dose Response confirmation of uHTS small molecule hits for cystic fibrosis induced NFkb Inhibitors in a PAF-induced IL8 counterscreen.; format: functional; conditions: read-out: IC50_Mean
[7] = blockers of HIV-1 ZM109 envelope-driven cell-cell fusion – HeLa effector, CEM target cells, luciferase, cherry-pick, dose response (AID 652058); format: functional, cell-based;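 also: luciferase signal from HIV-1 Env mediated cell-cell fusion of effector and target cells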
[8] = HIV-1 AD8 envelope cell-cell fusion blockers – cherry-pick, dose response (AID 652062); format: functional, cell-based;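 also: luciferase signal from cell-cell fusion driven by HIV-1 clade B AD8 Env; potency is for inhibitors of fusion seen as a drop in luminescence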
[9] = blockers of HIV-1 envelope-mediated cell-cell fusion – cherry-pick, dose response (AID 652057); format: functional, cell-based
[10] = off-target signal loss in HeLa-CEM21 co-culture – HeLa F-luc CTL cells, cherry-picked, counter-screen for HIV-1 Env fusion inhibitor project, dose response (AID 652040); format: functional, cell-based;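 also: potency for signal decrease marking cytotoxic or nonspecific inhibition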
[11] = molecular target: T1, Sentrin-specific protease 8 (Homo sapiens, UniProt Q96LD8); format: functional
T1 sequence (Q96LD8 whole entry): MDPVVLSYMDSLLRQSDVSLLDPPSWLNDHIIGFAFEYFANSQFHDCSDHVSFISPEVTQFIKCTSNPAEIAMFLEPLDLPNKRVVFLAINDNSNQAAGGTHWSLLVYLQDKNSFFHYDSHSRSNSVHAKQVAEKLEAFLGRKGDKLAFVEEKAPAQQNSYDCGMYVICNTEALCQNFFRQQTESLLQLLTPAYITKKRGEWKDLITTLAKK

[12] = molecular target: T1, Sentrin-specific protease 8; format: functional; remark: listed apart in the source
[13] = NIH3T3 cell viability loss – ATP luminescence, mouse fibroblasts, counter-screen, dose response (AID 2010); format: functional, cell-based;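 also: cells exposed to compound for about 90 hours before reading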
[14] = Trypanosoma cruzi growth suppression in host cells – NIH3T3 host cells, beta-gal luminescence, confirmation (AID 2044); format: functional, cell-based;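 also: intracellular parasites grown in NIH/3T3 mouse fibroblasts as host cells; luminescent beta-galactosidase reporter signal from transgenic T. cruzi replicating inside host cells; inhibitors lower the luminescence signal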
[15] = HEK-293T cell viability reduction – luminescence, B-cell screen hits, cytotoxicity control for BCR NF-kB inhibitor project, dose response (AID 489021); format: functional, cell-based;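 also: HEK-293T cells carrying an NF-kB luciferase reporter; cells exposed to compound for about 14 hours before viability readout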
[16] = molecular target: T2, Oxysterols receptor LXR-beta (Homo sapiens, UniProt P55055); format: functional, cell-based;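 also: agonist activity at LXR measured by a cell-based luminescence readout across a dose range, run as a counterscreen for daf-12 agonists; HEK293 cells with Gal4-LXR fusion and GAL4-driven luciferase reporter; potency for activation of Gal4-LXR reporter so compounds are agonists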
T2 sequence (P55055 whole entry): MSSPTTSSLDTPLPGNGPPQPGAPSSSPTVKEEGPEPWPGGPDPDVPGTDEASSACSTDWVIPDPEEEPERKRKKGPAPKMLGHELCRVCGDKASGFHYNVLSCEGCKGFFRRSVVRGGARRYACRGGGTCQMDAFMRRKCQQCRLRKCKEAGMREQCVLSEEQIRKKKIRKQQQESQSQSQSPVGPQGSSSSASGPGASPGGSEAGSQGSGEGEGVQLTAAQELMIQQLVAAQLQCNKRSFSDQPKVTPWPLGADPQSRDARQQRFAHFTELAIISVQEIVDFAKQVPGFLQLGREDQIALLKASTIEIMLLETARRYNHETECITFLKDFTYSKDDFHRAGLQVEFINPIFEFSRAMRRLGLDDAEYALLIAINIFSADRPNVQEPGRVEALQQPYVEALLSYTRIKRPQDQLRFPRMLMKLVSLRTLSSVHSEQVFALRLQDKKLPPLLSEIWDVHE

[17] = T. cruzi growth inhibition in host cells, dose response, cell-based, plate reader, dry powder, set 2 (AID 652275); format: functional
[18] = non-specific 3'UTR reporter inhibition in Clone20-Shn3RL – cell-based, Renilla luciferase, cherry-picked, counter-screen for Shn3 inhibitor project, dose response (AID 624133); format: functional
[19] = loss of viability in HepG2 cells – cell-based, CellTiter-Glo, cherry-picked, cytotoxicity control for Shn3 inhibitor project, dose response (AID 624134); format: functional
[20] = reduction of Shn3 3'UTR-driven luciferase in osteoblasts – cell-based, Clone20 osteoblasts, firefly luciferase, cherry-picked, dose response (AID 624132); format: functional;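 also: firefly luciferase luminescence from reporter carrying the Shn3 3'UTR in osteoblasts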
[21] = molecular target: Galanin receptor type 3 (Homo sapiens, UniProt O60755); assay: Fluorescence-based cell-based primary high throughput dose response assay to identify antagonists of the Galanin Receptor 3 (GalR3).; format: functional
[22] = cells; format: functional, cell-based; conditions: HEK-CNG
[23] = OVCAR8 cell viability loss – plate reader, dry powder samples, PAX8 project, dose response (AID 743197); format: functional, cell-based; conditions: OVCAR-8
[24] = molecular target: Paired box protein Pax-8 (Homo sapiens, UniProt Q06710); assay: PAX8 transcriptional activity inhibition in RMG-I – RMG-I cells, luciferase, cherry-pick, dose response (AID 687027); format: functional, cell-based;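 also: luciferase reporter driven by Pax8 target thyroperoxidase promoter measured by SteadyGlo luminescence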
Sequence of Paired box protein Pax-8 (Q06710 whole entry): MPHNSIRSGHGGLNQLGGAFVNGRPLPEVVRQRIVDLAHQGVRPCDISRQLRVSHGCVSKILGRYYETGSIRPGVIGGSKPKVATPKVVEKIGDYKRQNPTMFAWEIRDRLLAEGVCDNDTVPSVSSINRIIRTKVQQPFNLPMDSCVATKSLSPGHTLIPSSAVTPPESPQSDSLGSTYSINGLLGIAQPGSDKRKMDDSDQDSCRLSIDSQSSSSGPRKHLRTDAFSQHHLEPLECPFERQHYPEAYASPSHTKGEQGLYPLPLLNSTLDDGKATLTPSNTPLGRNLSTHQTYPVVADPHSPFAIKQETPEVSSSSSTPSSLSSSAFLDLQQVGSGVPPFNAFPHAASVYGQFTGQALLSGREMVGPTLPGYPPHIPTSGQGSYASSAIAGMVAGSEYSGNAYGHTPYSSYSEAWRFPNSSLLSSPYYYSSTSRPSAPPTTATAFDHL

Sequence of Interleukin-8 (P10145 whole entry, the tested form may be a part): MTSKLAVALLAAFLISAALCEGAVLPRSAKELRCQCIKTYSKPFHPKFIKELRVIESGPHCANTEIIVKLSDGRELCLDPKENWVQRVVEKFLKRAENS
Sequence of Disintegrin and metalloproteinase domain-containing protein 17 (P78536 whole entry, the tested form may be a part): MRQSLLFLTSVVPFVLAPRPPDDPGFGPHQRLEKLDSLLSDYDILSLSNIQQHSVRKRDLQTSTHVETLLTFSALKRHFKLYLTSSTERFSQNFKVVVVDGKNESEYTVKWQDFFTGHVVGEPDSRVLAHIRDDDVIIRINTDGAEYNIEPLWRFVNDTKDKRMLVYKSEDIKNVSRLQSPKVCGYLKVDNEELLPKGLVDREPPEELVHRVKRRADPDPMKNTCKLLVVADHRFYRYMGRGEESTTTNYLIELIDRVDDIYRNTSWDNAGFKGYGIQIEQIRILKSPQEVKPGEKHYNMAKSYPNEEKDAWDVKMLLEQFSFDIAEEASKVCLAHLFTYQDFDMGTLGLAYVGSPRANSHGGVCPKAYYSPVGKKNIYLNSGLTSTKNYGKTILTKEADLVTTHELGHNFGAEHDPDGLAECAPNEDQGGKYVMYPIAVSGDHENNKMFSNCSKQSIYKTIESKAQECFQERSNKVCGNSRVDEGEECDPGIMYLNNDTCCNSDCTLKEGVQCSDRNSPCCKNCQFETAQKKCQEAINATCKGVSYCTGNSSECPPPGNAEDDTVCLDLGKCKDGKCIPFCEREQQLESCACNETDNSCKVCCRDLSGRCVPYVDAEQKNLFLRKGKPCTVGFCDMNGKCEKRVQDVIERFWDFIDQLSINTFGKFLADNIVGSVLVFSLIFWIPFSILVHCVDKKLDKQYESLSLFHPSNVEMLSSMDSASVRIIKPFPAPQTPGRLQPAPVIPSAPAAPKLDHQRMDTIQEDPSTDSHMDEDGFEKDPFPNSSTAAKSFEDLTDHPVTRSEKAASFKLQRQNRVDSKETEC
Sequence of Galanin receptor type 3 (O60755 whole entry): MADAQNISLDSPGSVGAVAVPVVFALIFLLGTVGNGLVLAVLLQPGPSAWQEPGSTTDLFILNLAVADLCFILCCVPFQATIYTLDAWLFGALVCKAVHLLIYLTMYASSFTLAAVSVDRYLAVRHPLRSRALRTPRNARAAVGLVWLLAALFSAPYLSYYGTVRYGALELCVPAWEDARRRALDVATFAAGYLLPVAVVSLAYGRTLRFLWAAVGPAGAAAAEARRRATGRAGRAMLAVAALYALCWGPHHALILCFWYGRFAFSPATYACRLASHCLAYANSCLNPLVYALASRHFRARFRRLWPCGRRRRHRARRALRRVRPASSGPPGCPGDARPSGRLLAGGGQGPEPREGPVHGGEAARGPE

Structure (SMILES): CCc1ccc(/C=C(/C#N)C(N)=S)cc1
IC50 [1]: > 122 µM (inactive)

IC50 [3]: > 69.4 µM (inactive)
Structure (SMILES): COc1cccc(CN2C(=O)[C@@H]3Cc4c([nH]c5ccccc45)C(C)(C)N3C2=O)c1
IC50 [2]: > 69.4 µM (inactive)

Structure (SMILES): CCOc1ccc(CC(=O)NO)cc1
IC50 [4]: 7.2 µM (active)

Structure (SMILES): CC(=O)c1c(C)n(C2CCCCC2)c2ccc(O)cc12
AC50 [5]: 3.23 µM (active)
IC50 [6]: > 79 µM (inactive)

Structure (SMILES): COc1ccc(C2=Nn3c(nnc3-c3ccncc3)SC2)cc1
AC50 [7]: 1.13 µM (active)
AC50 [8]: 1.03 µM (active)
AC50 [9]: 2.02 µM (active)
AC50 [10]: 2.34 µM (active)
IC50 [6]: 40.8 µM (inactive)

Structure (SMILES): Cc1[nH]n(-c2ccccc2)c(=O)c1S(=O)(=O)c1ccccc1
IC50 [11]: 12.8 µM (active)
IC50 [12]: 4.99 µM (active)

Structure (SMILES): Cc1ccc(Sc2cc(NCCCO)c([N+](=O)[O-])c3nonc23)cc1
EC50 [13]: > 60 µM (not active)
IC50 [11]: 23.3 µM (active)
EC50 [14]: 2.2 µM (active)
IC50 [15]: > 80 µM (inactive)
IC50 [12]: 18.1 µM (active)

EC50 [16]: > 67.5 µM (inactive)
Structure (SMILES): Cc1cccc(Nc2[nH]nc(C)c2[N+](=O)[O-])c1

Structure (SMILES): CC(C)N1C[C@H](C)[C@@H](CN(C)Cc2ccc(Cl)c(Cl)c2)Oc2c(cccc2-c2cn(-c3ccncc3)nn2)C1=O
AC50 [17]: 0.00149 µM (active)

Structure (SMILES): COc1ccc(-c2coc3c(C(=O)NCc4ccc(OC)c(OC)c4)cccc23)c(C)c1
AC50 [18]: 1.4 µM (active)
AC50 [19]: 1.77 µM (active)
AC50 [20]: 0.722 µM (active)
IC50 [21]: 0.358 µM (active)
EC50 [22]: > 29.9 µM (inactive)

Structure (SMILES): COCCNC(=O)C[C@@H]1C[C@H]2c3cc(NC(=O)Nc4ccc(C(F)(F)F)cc4)ccc3O[C@H]2[C@H](CO)O1
AC50 [23]: > 70 µM (inactive)
AC50 [24]: 26.6 µM (active)
